Data reported in ChEMBL document CHEMBL5131441, “De-novo designed β-lysine derivatives can both augment and diminish the proliferation rates of E. coli through the action of Elongation Factor P” (Bioorg Med Chem Lett, 2022).
The source made the active and inactive calls. No cut-off for these calls is given here.

Experiments:
[1] = tested on: Escherichia coli; assay: Antibacterial activity against Escherichia coli K12 harbouring elongation factor P deltayjeK variant assessed as restoration in bacterial growth at 500 uM incubated for 240 mins in presence of gentamicin by turbidity based analysis; type: functional, organism-based
[2] = tested on: Escherichia coli; assay: Antibacterial activity against Escherichia coli K12 harbouring wild type elongation factor P at 500 uM incubated for 240 mins by turbidity based analysis; type: functional, organism-based
[3] = tested on: Escherichia coli; assay: Antibacterial activity against Escherichia coli K12 harbouring elongation factor P deltayjeK variant assessed as reduction in bacterial growth at 500 uM incubated for 240 mins by turbidity based analysis; type: functional, organism-based
[4] = Cytotoxicity against HEK293 cells assessed as inhibition of cell growth; type: toxicity, cell-based; conditions: human
[5] = Cytotoxicity against HEK293 cells assessed as cell survival rate at 50 uM relative to control; type: toxicity, cell-based; conditions: human, read-out: Survival
[6] = Cytotoxicity against HEK293 cells assessed as cell survival rate at 500 uM relative to control; type: toxicity, cell-based; conditions: human, read-out: Survival
[7] = tested on: Escherichia coli; assay: Antibacterial activity against Escherichia coli K12 harbouring elongation factor P deltayjeK variant assessed as reduction in bacterial growth incubated for 240 mins by turbidity based analysis; type: functional, organism-based
[8] = tested on: Escherichia coli; assay: Antibacterial activity against Escherichia coli K12 harbouring elongation factor P deltapoxA variant assessed as reduction in bacterial growth at 500 uM incubated for 240 mins by turbidity based analysis; type: functional, organism-based
[9] = tested on: Escherichia coli; assay: Antibacterial activity against Escherichia coli K12 harbouring elongation factor P delta-efp variant assessed as reduction in bacterial growth at 500 uM incubated for 240 mins by turbidity based analysis; type: functional, organism-based

Compound	Activity [1]	Activity [3]	further results
CCNCCCC(N)CC(=O)O (racemic)	Active	–	–
NCCCCCCCCCCNCCCC(N)CC(=O)O (racemic)	–	Active	Activity [2]: Active; IC50 [4]: 250 µM; viability at 50 µM [5]: 81%; viability at 500 µM [6]: 0%
CCCNCCCC(N)CC(=O)O (racemic)	Active	–	–
GENTAMICIN	–	Active	MIC [7]: 6 µg/mL
NCCCCCCCCCCCCNCCCC(N)CC(=O)O (racemic)	–	Active	Activity [2]: Active; Activity [8]: Active; Activity [9]: Active; viability at 50 µM [5]: 14%
CC(=O)NCCCC(N)CC(=O)O (racemic)	Active	–	–
CNCCCC(N)CC(=O)O (racemic)	Active	–	–
NC(CCCNCc1ccccc1)CC(=O)O (racemic)	Active	–	–
NCCCCCCCCNCCCC(N)CC(=O)O (racemic)	Active	–	–
NCCCCC(N)CC(=O)O (racemic)	–	Active	–
CCCCCCNCCCC(N)CC(=O)O (racemic)	Active	–	IC50 [4]: 110 µM
NCCCCCCCCCCCNCCCC(N)CC(=O)O (racemic)	–	–	Activity [2]: Active
